Laboratory results: PubChem BioAssay AID260 (DTP/NCI, 2004)
“And” between values parts separate entries of the source, which are not always exact repeats. Identical values can stand only once. Toxic doses and inconclusive results are not listed.

System: CD2F1 mice, intracerebral L1210 leukemia, survival T/C
Test: NCI In Vivo Anticancer Drug Screen. Data for tumor model L1210 Leukemia (intracerebral) in CD2F1 (CDF1) mice
Conditions: higher = longer survival
Experimental: The antitumor activity of compounds was measured in mice bearing transplantable tumors. Survival or tumor size were measured and the results are expressed as the measurement made in the treated group (T) divided by the measurement made in the vehicle treated control group (C). The tumor model used in this assay is L1210 Leukemia (intracerebral) in CD2F1 (CDF1) mice

[1] = endpoint: median survival time, dose: 32.0 mg/kg/injection, schedule: Q01DX009 (ip), vehicle: saline with Tween-80
[2] = endpoint: median survival time, dose: 8.0 mg/kg/injection, schedule: Q01DX005 (ip), vehicle: saline + alcohol
[3] = endpoint: median survival time, dose: 16.0 mg/kg/injection, schedule: Q01DX005 (ip), vehicle: saline + alcohol
[4] = endpoint: median survival time, dose: 32.0 mg/kg/injection, schedule: Q01DX005 (ip), vehicle: saline + alcohol
[5] = endpoint: median survival time, dose: 64.0 mg/kg/injection, schedule: Q01DX005 (ip), vehicle: saline + alcohol
[6] = endpoint: median survival time, dose: 128.0 mg/kg/injection, schedule: Q01DX005 (ip), vehicle: saline + alcohol

## Nc1ccn([C@@H]2C=C(CO)[C@@H](O)[C@H]2O)c(=O)n1
endpoint: median survival time, dose: 0.44 mg/kg/injection, schedule: Q01DX009 (ip), vehicle: saline
  T/C: 103 % of control
endpoint: median survival time, dose: 0.67 mg/kg/injection, schedule: Q01DX009 (ip), vehicle: saline
  T/C: 114 % of control
endpoint: median survival time, dose: 2.25 mg/kg/injection, schedule: Q01DX009 (ip), vehicle: saline
  T/C: 120 % of control
endpoint: median survival time, dose: 3.76 mg/kg/injection, schedule: Q01DX009 (ip), vehicle: saline
  T/C: 92 % of control

## CSCS(=O)C[C@H](CO)NC(=O)/C=C/c1c(C)[nH]c(=O)[nH]c1=O (stereo not given in full)
endpoint: median survival time, dose: 0.06 mg/kg/injection, schedule: Q01DX005 (ip), vehicle: Klucel (hydroxypropylcellulose) (HPC)
  T/C: 97 % of control and 102 % of control
endpoint: median survival time, dose: 0.12 mg/kg/injection, schedule: Q01DX005 (ip), vehicle: Klucel (hydroxypropylcellulose) (HPC)
  T/C: 100 % of control and 101 % of control
endpoint: median survival time, dose: 0.25 mg/kg/injection, schedule: Q01DX005 (ip), vehicle: Klucel (hydroxypropylcellulose) (HPC)
  T/C: 100 % of control and 105 % of control
endpoint: median survival time, dose: 0.5 mg/kg/injection, schedule: Q01DX005 (ip), vehicle: Klucel (hydroxypropylcellulose) (HPC)
  T/C: 100 % of control and 102 % of control

## c1ccc([C@H]2CN3CCSC3=N2)cc1
endpoint: median survival time, dose: 5.0 mg/kg/injection, schedule: Q01DX009 (ip), vehicle: saline
  T/C: 100 % of control and 101 % of control and 103 % of control
endpoint: median survival time, dose: 10.0 mg/kg/injection, schedule: Q01DX005 (ip), vehicle: saline
  T/C: 101 % of control
endpoint: median survival time, dose: 10.0 mg/kg/injection, schedule: Q01DX009 (ip), vehicle: saline
  T/C: 124 % of control and 100 % of control and 102 % of control
endpoint: median survival time, dose: 20.0 mg/kg/injection, schedule: Q01DX005 (ip), vehicle: saline
  T/C: 98 % of control and 116 % of control
endpoint: median survival time, dose: 20.0 mg/kg/injection, schedule: Q01DX009 (ip), vehicle: saline
  T/C: 97 % of control (2×) and 104 % of control
endpoint: median survival time, dose: 40.0 mg/kg/injection, schedule: Q01DX005 (ip), vehicle: saline
  T/C: 98 % of control and 113 % of control

## O=C1c2ccccc2C(=O)c2c(NCCNCCO)ccc(NCCNCCO)c21
endpoint: median survival time, dose: 4.0 mg/kg/injection, schedule: Q01DX009 (ip), vehicle: saline with Tween-80
  T/C: 118 % of control
endpoint: median survival time, dose: 4.0 mg/kg/injection, schedule: Q01DX009 (ip), vehicle: saline
  T/C: 102 % of control and 111 % of control
endpoint: median survival time, dose: 8.0 mg/kg/injection, schedule: Q01DX009 (ip), vehicle: saline
  T/C: 119 % of control and 102 % of control
endpoint: median survival time, dose: 16.0 mg/kg/injection, schedule: Q01DX009 (ip), vehicle: saline
  T/C: 121 % of control and 124 % of control
[1]
  T/C: 97 % of control
endpoint: median survival time, dose: 32.0 mg/kg/injection, schedule: Q01DX009 (ip), vehicle: saline
  T/C: 103 % of control

## C[C@@H](CN1CC(=O)NC(=O)C1)N1CC(=O)NC(=O)C1
endpoint: mean survival time, dose: 64.0 mg/kg/injection, schedule: Q01DX009 (ip), vehicle: water
  T/C: 164 % of control
endpoint: mean survival time, dose: 256.0 mg/kg/injection, schedule: Q01DX009 (ip), vehicle: water
  T/C: 111 % of control
endpoint: mean survival time, dose: 512.0 mg/kg/injection, schedule: Q01DX009 (ip), vehicle: water
  T/C: 100 % of control

## C[C@@H]1C[C@@H]([C@H](O)CC2CC(=O)NC(=O)C2)C(=O)[C@@H](C)C1
endpoint: mean survival time, dose: 10.0 mg/kg/injection, schedule: Q01DX009 (ip), vehicle: saline
  T/C: 114 % of control
endpoint: mean survival time, dose: 20.0 mg/kg/injection, schedule: Q01DX009 (ip), vehicle: saline
  T/C: 101 % of control
endpoint: mean survival time, dose: 40.0 mg/kg/injection, schedule: Q01DX009 (ip), vehicle: saline
  T/C: 114 % of control
endpoint: mean survival time, dose: 80.0 mg/kg/injection, schedule: Q01DX009 (ip), vehicle: saline
  T/C: 106 % of control

## O=C1C(=O)c2ccccc2C(O)=C1CC=C(Cl)Cl
endpoint: median survival time, dose: 10.0 mg/kg/injection, schedule: Q01DX005 (ip), vehicle: Klucel (hydroxypropylcellulose) (HPC)
  T/C: 89 % of control and 96 % of control
endpoint: median survival time, dose: 20.0 mg/kg/injection, schedule: Q01DX005 (ip), vehicle: Klucel (hydroxypropylcellulose) (HPC)
  T/C: 95 % of control and 96 % of control
endpoint: median survival time, dose: 40.0 mg/kg/injection, schedule: Q01DX005 (ip), vehicle: Klucel (hydroxypropylcellulose) (HPC)
  T/C: 101 % of control and 109 % of control
endpoint: median survival time, dose: 80.0 mg/kg/injection, schedule: Q01DX005 (ip), vehicle: Klucel (hydroxypropylcellulose) (HPC)
  T/C: 109 % of control and 117 % of control

## CN(C)N=Nc1ccccc1C(=O)O
endpoint: mean survival time, dose: 5.0 mg/kg/injection, schedule: Q01DX007 (ip), vehicle: other
  T/C: 103 % of control
endpoint: mean survival time, dose: 10.0 mg/kg/injection, schedule: Q01DX007 (ip), vehicle: other
  T/C: 109 % of control
endpoint: mean survival time, dose: 20.0 mg/kg/injection, schedule: Q01DX007 (ip), vehicle: other
  T/C: 112 % of control
endpoint: mean survival time, dose: 40.0 mg/kg/injection, schedule: Q01DX007 (ip), vehicle: other
  T/C: 101 % of control
endpoint: median survival time, dose: 4.0 mg/kg/injection, schedule: Q01DX005 (ip), vehicle: saline + alcohol
  T/C: 105 % of control
[2]
  T/C: 102 % of control
[3]
  T/C: 105 % of control
[4]
  T/C: 108 % of control
[5]
  T/C: 97 % of control

## COc1ccc2c(c1)CCC(c1ccccc1)=C2c1ccc(OCCN2CCCC2)cc1
endpoint: median survival time, dose: 12.0 mg/kg/injection, schedule: Q01DX005 (ip), vehicle: Klucel (hydroxypropylcellulose) (HPC)
  T/C: 98 % of control and 101 % of control
endpoint: median survival time, dose: 24.0 mg/kg/injection, schedule: Q01DX005 (ip), vehicle: Klucel (hydroxypropylcellulose) (HPC)
  T/C: 106 % of control
endpoint: median survival time, dose: 48.0 mg/kg/injection, schedule: Q01DX005 (ip), vehicle: Klucel (hydroxypropylcellulose) (HPC)
  T/C: 108 % of control
endpoint: median survival time, dose: 96.0 mg/kg/injection, schedule: Q01DX005 (ip), vehicle: Klucel (hydroxypropylcellulose) (HPC)
  T/C: 106 % of control

## COC(=O)c1ccc(N=NN(C)C)cc1
[2]
  T/C: 104 % of control
[3]
  T/C: 106 % of control
[4]
  T/C: 113 % of control
[5]
  T/C: 120 % of control
[6]
  T/C: 112 % of control

## COC(=O)c1cccc(N=NN(C)C)c1
[2]
  T/C: 104 % of control
[3]
  T/C: 100 % of control
[4]
  T/C: 104 % of control
[5]
  T/C: 113 % of control
[6]
  T/C: 117 % of control

## C[C@]1(O)CC[C@H]2[C@@H]3CCC4=CC(=O)CC[C@]4(C)[C@@]3(F)[C@@H](O)C[C@@]21C
endpoint: median survival time, dose: 8.0 mg/kg/injection, schedule: Q01DX009 (ip), vehicle: saline with Tween-80
  T/C: 112 % of control
endpoint: median survival time, dose: 16.0 mg/kg/injection, schedule: Q01DX009 (ip), vehicle: saline with Tween-80
  T/C: 112 % of control
[1]
  T/C: 104 % of control
endpoint: median survival time, dose: 64.0 mg/kg/injection, schedule: Q01DX009 (ip), vehicle: saline with Tween-80
  T/C: 104 % of control
endpoint: median survival time, dose: 128.0 mg/kg/injection, schedule: Q01DX009 (ip), vehicle: saline with Tween-80
  T/C: 122 % of control
endpoint: median survival time, dose: 256.0 mg/kg/injection, schedule: Q01DX009 (ip), vehicle: saline with Tween-80
  T/C: 104 % of control
endpoint: median survival time, dose: 512.0 mg/kg/injection, schedule: Q01DX009 (ip), vehicle: saline with Tween-80
  T/C: 96 % of control

## CN(CO)c1nc(N(C)CO)nc(N(C)CO)n1
endpoint: median survival time, dose: 3.12 mg/kg/injection, schedule: Q01DX009 (ip), vehicle: saline with Tween-80
  T/C: 101 % of control
endpoint: median survival time, dose: 6.25 mg/kg/injection, schedule: Q01DX009 (ip), vehicle: saline with Tween-80
  T/C: 96 % of control
endpoint: median survival time, dose: 12.5 mg/kg/injection, schedule: Q01DX009 (ip), vehicle: saline with Tween-80
  T/C: 100 % of control
endpoint: median survival time, dose: 25.0 mg/kg/injection, schedule: Q01DX009 (ip), vehicle: saline with Tween-80
  T/C: 95 % of control
endpoint: median survival time, dose: 50.0 mg/kg/injection, schedule: Q01DX009 (ip), vehicle: Klucel (hydroxypropylcellulose) (HPC)
  T/C: 104 % of control and 109 % of control
endpoint: median survival time, dose: 50.0 mg/kg/injection, schedule: Q01DX009 (ip), vehicle: saline with Tween-80
  T/C: 104 % of control
endpoint: median survival time, dose: 100.0 mg/kg/injection, schedule: Q01DX009 (ip), vehicle: Klucel (hydroxypropylcellulose) (HPC)
  T/C: 119 % of control and 116 % of control

## N#[N+]c1nc[nH]c1C(N)=O
endpoint: median survival time, dose: 2.0 mg/kg/injection, schedule: Q01DX005 (ip), vehicle: saline
  T/C: 112 % of control
endpoint: median survival time, dose: 4.0 mg/kg/injection, schedule: Q01DX005 (ip), vehicle: saline
  T/C: 105 % of control
endpoint: median survival time, dose: 8.0 mg/kg/injection, schedule: Q01DX005 (ip), vehicle: saline
  T/C: 107 % of control
endpoint: median survival time, dose: 16.0 mg/kg/injection, schedule: Q01DX005 (ip), vehicle: saline
  T/C: 105 % of control
endpoint: median survival time, dose: 32.0 mg/kg/injection, schedule: Q01DX005 (ip), vehicle: saline
  T/C: 105 % of control
endpoint: median survival time, dose: 64.0 mg/kg/injection, schedule: Q01DX005 (ip), vehicle: saline
  T/C: 101 % of control

## O=NN(CCCl)C(=O)NC1C(O)C(O)C(O)C(O)C1O (stereo not given)
endpoint: mean survival time, dose: 9.0 mg/kg/injection, schedule: Q01DX001 (ip), vehicle: saline
  T/C: 110 % of control
endpoint: mean survival time, dose: 13.0 mg/kg/injection, schedule: Q01DX001 (ip), vehicle: saline
  T/C: 117 % of control
endpoint: mean survival time, dose: 44.0 mg/kg/injection, schedule: Q01DX001 (ip), vehicle: saline
  T/C: 115 % of control
endpoint: mean survival time, dose: 67.0 mg/kg/injection, schedule: Q01DX001 (ip), vehicle: saline
  T/C: 95 % of control

## N[C@H](C(=O)O)[C@@H]1CC(Cl)=NO1
endpoint: mean survival time, dose: 16.0 mg/kg/injection, schedule: Q01DX009 (ip), vehicle: saline
  T/C: 124 % of control
endpoint: mean survival time, dose: 32.0 mg/kg/injection, schedule: Q01DX009 (ip), vehicle: saline
  T/C: 101 % of control
